Measured values: patent publication US11136297B2, “Compositions and methods for treating cancer” (THE REGENTS OF THE UNIVERSITY OF CALIFORNIA, priority 2016, dated 2021)

Key:
[1] = target: T1, H-Ras(M72C) bound to either GDP or GppNHp (Homo sapiens, UniProt P01112, M72C); test: Electrophile labeling experiments (percent modification by whole protein LC/MS); format: binding; conditions: 4 μM H-Ras(M72C) GDP or GppNHp, 100 μM electrophile, 24 hours
T1 construct: Labeling studies were conducted using the 1-166 H-Ras(M72C) construct containing all endogenous cysteines; His6; made in house; host or cells: Escherichia coli BL21(DE3)
Protocol: Electrophile Labeling Experiments.
Each reaction was analyzed in a 96 well plate format for analysis by LC/MS. Total reaction volumes were 25 μL for single time point labeling experiments and 200 uL for full 24-hour time courses. 25 μL reactions were made in the wells of a V-bottom 96 well plate and 200 uL reactions were made in 1.25 mL eppendorf tubes. All labeling reactions were conducted in Gel Filtration Buffer (20 mM HEPES (pH 7.5), 150 mM NaCl) with no added reductant at room temperature. […] Electrophile stocks were made in DMSO at 10 mM, aliquoted, and frozen. Labeling reactions were started by the addition of the desired volume of 10 mM electrophile stock and mixed thoroughly by pipette. General screening of new electrophiles was done at 100 μM electrophile in triplicate and sampled as a single time point after 24 hours of incubation. For Compound 3, labeling time courses were conducted at 20 μM compound with sampling done every 2 hours for the first 10 hours of incubation and continued after overnight incubation until the protein was fully modified. Reactions were allowed to sit at room temperature in the dark (either covered in aluminum foil or in a bench drawer) until the desired time point was reached. For 24-hour single point labeling experiments, the reaction was directly sampled from the 96 well plate and analyzed by LC/MS. For experiments with multiple time points, 22.5 μL aliquots of the 200 μL master reaction were sampled and quenched by the addition of 2.5 μL of 2% formic acid (also made in Gel Filtration Buffer). This 25 μL quenched sample was then analyzed by LC/MS and the remaining master reaction was allowed to continue reacting after gentle mixing by pipette. The percent modification was analyzed by electrospray mass spectrometry using a Waters Acquity UPLC/ESI-TQD with a 2.1×50 mm Acquity UPLC BEH300 C4 column.

[2] = target: T2, H-Ras(M72C) GppNHp binding to Raf-1-RBD (Homo sapiens, UniProt P01112, M72C); test: Raf-1-RBD pull-down of labeled H-Ras(M72C) GppNHp; conditions: H-Ras(M72C) GppNHp pre-labeled with compound; various concentrations of H-Ras
T2 construct: and H-Ras (residues 1-166) were transformed into Escherichia coli; His6; made in house; host or cells: Escherichia coli BL21(DE3)
Protocol: FIGS. 29A-29D. […] FIG. 29D: Reconstruction of Ras cycle is achieved by inducing nucleotide exchange of 100 nM Ras by various concentrations of SOS^cat for either 1 or 2 hours and subsequent pull-down by Raf-1-RBD.
FIGS. 33A-33D. […] In FIG. 33B) through FIG. 33D), normalized pull-down signals are shown below the blot. S. E. M for each signal, number of replicates, and […] for each comparative Standard T-Test are summarized herein (see Tables 33B, 33C, and 33D). […] Comparative statistics were done for normalized pull-down signals between protein constructs of the same condition (i.e. in FIG. 33B) and FIG. 33C), column 1 for unlabeled and 1 for labeled protein, 2 for unlabeled and 2 for labeled, and so on were statistically compared, and in FIG. 33D) only the +SOS^cat and +GppNHp lanes were compared across protein constructs). FIG. 33A) Cartoon representation of pull down protocol. […] Reported values are quantified pull-down signals normalized to input. FIG. 33B) Cartoon representation of pull down protocol. […] FIG. 33C) Cartoon representation of pull down protocol. […] FIG. 33D) Cartoon representation of pull down protocol. Ras activation is achieved by catalyzing nucleotide exchange by SOS^cat and indirectly reading out activated Ras by subsequent pull down by Raf-1-RBD.

[3] = target: T2, H-Ras(M72C) GppNHp binding to Raf-1-RBD; test: Ras GppNHp in vitro pull down by His6-MBP-Raf-1-RBD; conditions: H-Ras(M72C) pre-labeled with compound
Protocol: Ras GppNHp In Vitro Pull Down Assay by His6-MBP-Raf-1-RBD. For each His6-MBP-Raf-1-RBD in vitro pull down the total volume was 500 μL. Each reaction had the following final composition: Either 20, 80, 200, 400, or 800 nM Ras GppNHp (from 0.2 mg/mL Ras stock), 75 nM BSA (2.5 μg, 5 μL of 0.5 mg/mL BSA stock), 200 nM of His6-MBP-Raf-1-RBD (5.3 μg, 1.2 μL of 4.38 mg/mL stock of His6-MBP-Raf-1-RBDwitt), and Raf Pull Down Buffer to volume (25 mM Tris (pH 7.2), 150 mM NaCl, 5 mM MgCl2, 1% NP-40, 5% glycerol, 20 mM imidazole). Samples were then mixed by gentle rotation at 4° C. for 30 min. While equilibrating, add 50 μL Ni-NTA slurry (Qiagen) to a cellulose acetate spin cup and spin at 5,000 rpm on a tabletop centrifuge for 30 seconds. Wash the beads with 400 μL of Raf Pull Down Buffer to wash away bead storage buffer. Before adding each pull down solution, take 10 μL and save as a loading control sample. To each spin cup filled with washed Ni-NTA beads, add the remaining equilibrated pull down solution, seal the spin cup with parafilm and let rotate at 4° C. for 30 more minutes. After mixing, centrifuge the sample for 30 seconds at 5,000 rpm. Toss flow through. Wash the beads X 5 with 400 μL of Raf Pull Down Buffer. After last wash, centrifuge one last time to remove any excess buffer stuck to the beads. […] Blots were read out using LICOR compatible secondary antibodies. […]

K-Ras(M72C) GDP = target: T3, K-Ras(M72C) GDP (Homo sapiens, UniProt P01116, M72C); test: βME50 determination of tethering fragments; format: binding; conditions: relative to 2C07
T3 construct: Untagged recombinant 1-169 K-Ras(M72C) GDP; His6 (cleaved yes); made in house; host or cells: Escherichia coli BL21(DE3)
Protocol: (§1) A tethering library of 960 disulfides were screened against 1-169 K-Ras(M72C) GDP using intact protein mass spectrometry to monitor percent modification (See Methods, and FIG. 37). […] To better prioritize tethering fragments, a βME50 value (the concentration of βME needed to reduce disulfide fragment modification to 50%) was determined for each compound. A higher βME50 value corresponds to a better fragment as it can bind with increasing concentrations of competitive thiol (Erlanson et al., 2004; Yang et al., 2009).
We next explored small chemical modifications to 2C07.

1-169 K-Ras(M72C) GDP = target: T4, 1-169 K-Ras(M72C) GDP (Homo sapiens, UniProt P01116, M72C); test: Disulfide tethering screen, percent modification by intact protein mass spectrometry; format: binding; conditions: screening βME 1 mM
T4 construct: Untagged recombinant 1-169 K-Ras(M72C) GDP; His6 (cleaved yes); made in house; host or cells: Escherichia coli BL21(DE3)
Excerpt: In some embodiments, a library of disulfide compounds may be screened against a cysteine-containing protein in the presence of a reducing agent such as β-mercaptoethanol (BME). Compounds with complementary binding contacts with a region of the protein near the cysteine may shift the disulfide exchange equilibrium away from BME modification of the cysteine thiol and enhance the ratio of the hit ligand bound to the cysteine. The resulting mass change of the protein can be readily detected by mass spectrometry, and the percentage of modified protein can be used as a measure of potency. Compounds which exchange with the cysteine without conferring affinity should exchange with reducing agent equally well and will not shift the equilibrium toward protein modification. The potency of various compounds at a given concentration of BME may be compared by calculating the dose-response 50 (DR50), which is the concentration of compound at which the protein becomes 50% modified.
as §1, with “A higher βME50 value corresponds to a better fragment as it can bind with increasing concentrations of competitive thiol (Erlanson et al., 2004; Yang et al., 2009).” left out

[4] = target: T5, full-length wild-type K-Ras (Homo sapiens, UniProt P01116); test: Disulfide fragment labeling of full-length wild-type K-Ras (Cys 72 selectivity); format: binding; conditions: wild-type K-Ras contains 4 native cysteine residues
T5 construct: His6; made in house; host or cells: Escherichia coli BL21(DE3)

H-Ras(M72C) GppNHp = H-Ras(M72C) GppNHp (Homo sapiens, UniProt P01112, M72C); test: βME50 and percent labeling of tethering fragments, GppNHp state; format: binding; design: Labeling studies were conducted using the 1-166 H-Ras(M72C) construct containing all endogenous cysteines; His6; made in house; host or cells: Escherichia coli BL21(DE3); conditions: disulfide tethering at Cys 72
Protocol: FIG. 32. […] Percent labeling against H-Ras(M72C) GDP and GppNHp at the screening βME concentration (1 mM) are graphed.
as §1

WT H-Ras = target: T6, WT H-Ras (Homo sapiens, UniProt P01112); test: BioLayer interferometry (BLI) reversible binding
T6 construct: made in house; host or cells: Escherichia coli BL21(DE3)

H-Ras(M72C) GDP = H-Ras(M72C) GDP (Homo sapiens, UniProt P01112, M72C); test: Competition labeling experiments (Compound 3 vs Compound 4); format: binding; design: Labeling studies were conducted using the 1-166 H-Ras(M72C) construct containing all endogenous cysteines; His6; made in house; host or cells: Escherichia coli BL21(DE3); conditions: 20 μM Compound 3, varying Compound 4 (0-180), 4 μM H-Ras(M72C) GDP
Protocol: Competition Labeling Experiments.
[…] were made in Gel Filtration buffer (20 mM HEPES (pH 7.5), 150 mM NaCl) with no added reductant at room temperature. The final concentrations of each reagent were as follows: […], 1 mM MgCl2, […], X mM Compound 4, and a total DMSO concentration of 4% by volume. Compound 4 was varied from OX (0 mM), 1× (20 mM), 3× (60 mM), and 9× (180 mM) respectively. Adding the desired volume of Gel Filtration Buffer, MgCl2, DMSO, and 10 mM compound stocks of Compounds 3 and 4 was done first and mixed thoroughly before protein was added. Reactions were started by the addition and gentle mixing by pipette of concentrated Ras stocks diluted into the master reaction down to […]. Each reaction was set in triplicate and allowed to react at room temperature in the dark (either covered in aluminum foil or in a bench drawer) until the desired time point was reached. At each time point, […] aliquots of each 200 mL master reaction was sampled and quenched by the addition of […] of 2% formic acid (also made in Gel Filtration Buffer). This 25 mL quenched sample was then analyzed by LC/MS and the remaining master reaction was allowed to continue reacting after gentle mixing by pipette. The percent modification was analyzed by electrospray mass spectrometry using a Waters Acquity UPLC/ESI-TQD with a 2.1×50 mm Acquity UPLC BEH300 C4 column.

With `C=CC(=O)Nc1cccc(NC(=O)c2cnn(-c3ccc(OC)cc3)c2C(F)(F)F)c1` [Compound 2, N-(3-acrylamidophenyl)-1-(4-methoxyphenyl)-5-(trifluoromethyl)-1H-pyrazole-4-carboxamide] the “Percent modification (labeling of Cys 72)” value [1] was “significant increase”, the Raf-1-RBD binding [2] was “do not inhibit Raf RBD binding” and the “Raf-1-RBD binding (pull down), labeled vs unlabeled H-Ras(M72C)” value [3] was “did not inhibit Raf-1-RBD binding”.
For `COc1ccc(-n2ncc(C(=O)NCCCCSSCCN(C)C)c2C(F)(F)F)cc1` [Compound 2C07b, N-(4-((2-(dimethylamino)ethyl)disulfanyl)butyl)-1-(4-methoxyphenyl)-5-(trifluoromethyl)-1H-pyrazole-4-carboxamide], the “change in βME50” value (K-Ras(M72C) GDP) was “small decrease”.
For `C=CC(=O)Nc1ccc(NC(=O)c2cnn(-c3ccc(OC)cc3)c2C(F)(F)F)cc1` [Compound 1, N-(4-acrylamidophenyl)-1-(4-methoxyphenyl)-5-(trifluoromethyl)-1H-pyrazole-4-carboxamide], the “Percent modification (labeling of Cys 72)” value [1] was “no detectable labeling”.
With `CN(C)CCSSCCCNC(=O)C(=O)c1c[nH]c2ccccc12` [Compound 2B02, N-(3-((2-(dimethylamino)ethyl)disulfanyl)propyl)-2-(1H-indol-3-yl)-2-oxoacetamide] the percent modification (1-169 K-Ras(M72C) GDP) was 52.8%, the “modification of full-length wild-type K-Ras” value [4] was “did not modify” and the “labeling of H-Ras(M72C) GppNHp” value (H-Ras(M72C) GppNHp) was “labeled”.
`CCC(=O)Nc1cc(Cl)cc(NC(=O)c2cnn(-c3ccc(OC)cc3)c2C(F)(F)F)c1` [Compound 4, N-(3-chloro-5-propionamidophenyl)-1-(4-methoxyphenyl)-5-(trifluoromethyl)-1H-pyrazole-4-carboxamide] was tested, and the “reversible binding by BLI” value (WT H-Ras) was “unable to detect measurable binding”, the “rate of Compound 3 labeling (% labeled per hour) in presence of Compound 4” value (H-Ras(M72C) GDP) was “dose dependent decrease” and the “rate of Compound 3 labeling (% labeled per hour) in presence of Compound 4” value (H-Ras(M72C) GDP; listed as compound 4) was “dose-dependent decrease”.
With `COc1ccc(-n2cc(C(=O)NCCCSSCCN(C)C)cn2)cc1` [Compound 2C07c, N-(3-((2-(dimethylamino)ethyl)disulfanyl)propyl)-1-(4-methoxyphenyl)-1H-pyrazole-4-carboxamide] the “change in βME50” value (K-Ras(M72C) GDP) was “drastic decrease”.
